{"source": "patent US20060069132A1", "about": "“Azolecarboxamide herbicides” (priority 2004, published 2006)", "key": {"[1]": {"tested_on": "velvetleaf", "test": "Test B pre-/postemergence herbicide test", "assay_type": "in vivo, Abutilon theophrasti", "summary_of_the_method": "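Test chemicals in a non-phytotoxic solvent mixture with surfactant were applied preemergence to seeded species and postemergence to plants 2-18 cm tall (1- to 4-leaf stage); rice and barnyardgrass were also tested in a flooded paddy at the 2-leaf stage. Visual rating versus controls after 13-15 days in greenhouse, scale 0 (no effect) to 100 (complete control).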"}, "[2]": {"tested_on": "bermudagrass", "test": "Test C pre-/postemergence herbicide test", "assay_type": "in vivo, Cynodon dactylon", "conditions": "for Bermudagrass plant response rating: 500 g ai/ha", "summary_of_the_method": "(§1)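 Pre/post spray; non-phytotoxic solvent + surfactant. Post-timing 1–4 leaves, 2–18 cm. Read-out: visual % control vs untreated, day 12–14, greenhouse.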"}, "[3]": {"tested_on": "cocklebur", "test": "Test C pre-/postemergence herbicide test", "assay_type": "in vivo, Xanthium strumarium", "conditions": "for Cocklebur plant response rating: 500 g ai/ha", "from_the_text": "(§2) Seeds of plant species selected from bermudagrass (Cynodon dactylon (L.) Pers.), Surinam grass (Urochloa decumbens (Staph) R. D. Webster, previously named Brachiaria decumbens Stapf), cocklebur (Xanthium strumarium L.), corn (Zea mays L.), large crabgrass (Digitaria sanguinalis (L.) Scop.), woolly cupgrass (Eriochloa villosa (Thunb.) Kunth), giant foxtail (Setaria faberi Herrm.), goosegrass (Eleusine indica (L.) Gaertn.), johnsongrass (Sorghum halepense (L.) Pers.), kochia (Kochia scoparia (L.) Schrad.), lambsquarters (Chenopodium album L.), morningglory (Ipomoea coccinea L.), eastern black nightshade (Solanum ptycanthum Dunal), yellow nutsedge (Cyperus esculentus L.), pigweed (Amaranthus retroflexus L.), common ragweed (Ambrosia elatior L.), soybean (Glycine max (L.) Merr.), common (oilseed) sunflower (Helianthus annuus L.) and velvetleaf (Abutilon theophrasti Medik.) were planted and treated preemergence with test chemicals formulated in a non-phytotoxic solvent mixture which included a surfactant.\n(§3) At the same time, plants selected from these crop and weed species and also winter barley (Hordeum vulgare L.), blackgrass (Alopecurus myosuroides Huds.), canarygrass (Phalaris minor Retz.), chickweed (Stellaria media (L.) Vill.), downy bromegrass (Bromus tectorum L.), green foxtail (Setaria viridis (L.) Beauv.), Italian ryegrass (Lolium multiflorum Lam.), wheat (Triticum aestivum L.), wild oat (Avenafatua L.) and windgrass (Apera spica-venti (L.) Beauv.) were treated with postemergence applications of some of the test chemicals formulated in the same manner. Plants ranged in height from 2 to 18 cm (1- to 4-leaf stage) for postemergence treatments. Plant species in the flooded paddy test consisted of rice (Oryza sativa), smallflower umbrella sedge (Cyperus difformis L.), ducksalad (Heteranthera limosa (Sw.) Willd.) and barnyardgrass (Echinochloa crus-galli (L.) Beauv.) grown to the 2-leaf stage for testing. Treated plants and controls were maintained in a greenhouse for 12 to 14 days, after which time all species were compared to controls and visually evaluated. Plant response ratings, summarized in Table C, are based on a scale of 0 to 100 where 0 is no effect and 100 is complete control. A dash (-) response means no test result."}, "[4]": {"tested_on": "johnsongrass", "test": "Test C pre-/postemergence herbicide test", "assay_type": "in vivo, Sorghum halepense", "summary_of_the_method": "as §1"}, "[5]": {"tested_on": "eastern black nightshade", "test": "Test C pre-/postemergence herbicide test", "assay_type": "in vivo, Solanum ptycanthum", "conditions": "preemergence", "from_the_text": "as §2, §3"}, "[6]": {"tested_on": "soybean", "test": "Test C pre-/postemergence herbicide test", "assay_type": "in vivo, Glycine max", "from_the_text": "as §2, §3"}, "[7]": {"tested_on": "barnyardgrass", "test": "Test A pre-/postemergence herbicide test", "assay_type": "in vivo, Echinochloa crus-galli", "summary_of_the_method": "(§4)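 Greenhouse injury scoring (0–100, complete control = 100) at approximately ten days follows simultaneous pre- and postemergence application. Soil received a directed spray after seeding; seedlings of 2–10 cm at the one- to two-leaf stage were sprayed to runoff.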"}, "[8]": {"tested_on": "large crabgrass", "test": "Test A pre-/postemergence herbicide test", "assay_type": "in vivo, Digitaria sanguinalis", "summary_of_the_method": "as §4"}, "[9]": {"tested_on": "redroot pigweed", "test": "Test A pre-/postemergence herbicide test", "assay_type": "in vivo, Amaranthus retroflexus", "summary_of_the_method": "as §4"}, "[10]": {"conditions": "125 g ai/ha; visual rating, scale 0 (no effect) to 100 (complete control); postemergence"}, "[11]": {"conditions": "postemergence, 500 g ai/ha; scale 0 to 100, 0 is no effect, 100 is complete control"}, "[12]": {"conditions": "62 g ai/ha, preemergence, scale 0 to 100, 0 no effect, 100 complete control"}, "[13]": {"conditions": "125 g ai/ha, scale 0 (no effect) to 100 (complete control), visual, 12 to 14 days, preemergence"}, "[14]": {"conditions": "250 g ai/ha, scale 0-100, preemergence"}, "[15]": {"conditions": "Preemergence, scale 0 to 100, 0 no effect, 100 complete control"}, "[16]": {"conditions": "62 g ai/ha, preemergence, scale 0 to 100"}, "[17]": {"conditions": "500 g ai/ha, scale 0 to 100 (0 no effect, 100 complete control), visual, 12 to 14 days, preemergence"}, "[18]": {"conditions": "125 g ai/ha, scale 0 (no effect) to 100 (complete control), visual, 12 to 14 days"}, "[19]": {"conditions": "Postemergence, 500 g ai/ha, 0 to 100 scale, 0 no effect, 100 complete control"}, "[20]": {"conditions": "Postemergence, 2000 g ai/ha, 0 to 100 scale, 0 no effect, 100 complete control"}, "[21]": {"conditions": "Preemergence, 500 g ai/ha, visual rating, 0 to 100 scale (0 no effect, 100 complete control)"}, "[22]": {"conditions": "Preemergence, 2000 g ai/ha, 0 to 100 scale, 0 no effect, 100 complete control"}, "[23]": {"conditions": "Postemergence, 250 g ai/ha, scale 0 to 100, 0 no effect, 100 complete control"}, "[24]": {"conditions": "postemergence, 62 g ai/ha, scale 0 to 100"}, "[25]": {"conditions": "postemergence, 125 g ai/ha, scale 0 to 100"}, "[26]": {"conditions": "Postemergence, 500 g ai/ha, scale 0 to 100"}}}
{"smiles": "CCn1nc(C(C)(C)C)cc1C(=S)Nc1cc(C(=S)N(C)C)ccc1F", "note": "[Compound 305]", "values": [{"measurement": "Velvetleaf plant response rating", "setting": "[1]; [10]", "result": 20}, {"measurement": "Plant response rating, Velvetleaf", "setting": "[1]; 500 g ai/ha; visual rating, 0 = no effect, 100 = complete control; preemergence", "result": 100}, {"measurement": "Velvetleaf plant response rating", "setting": "[1]; [11]", "result": 20}, {"measurement": "Plant response rating, Bermudagrass", "setting": "[2]; [12]", "result": 80}, {"measurement": "Plant response rating, Bermudagrass", "setting": "[2]; [13]", "result": 85}, {"measurement": "Plant response rating, Bermudagrass", "setting": "[2]; [14]", "result": 100}, {"measurement": "Bermudagrass plant response rating", "setting": "[2]; [15]", "result": 100}, {"measurement": "Plant response rating, Cocklebur", "setting": "[3]; [16]", "result": 10}, {"measurement": "Plant response rating, Cocklebur", "setting": "[3]; [13]", "result": 15}, {"measurement": "Plant response rating, Cocklebur", "setting": "[3]; [14]", "result": 65}, {"measurement": "Cocklebur plant response rating", "setting": "[3]; [15]", "result": 90}, {"measurement": "Plant response rating, Johnsongrass", "setting": "[4]; [16]", "result": 65}, {"measurement": "Plant response rating, Johnsongrass", "setting": "[4]; [13]", "result": 90}, {"measurement": "Plant response rating, Johnsongrass", "setting": "[4]; [14]", "result": 95}, {"measurement": "Plant response rating, Johnsongrass", "setting": "[4]; [17]", "result": 95}, {"measurement": "Plant response rating, Nightshade", "setting": "[5]; 62 g ai/ha, scale 0 to 100", "result": 60}, {"measurement": "Plant response rating, Nightshade", "setting": "[5]; [18]", "result": 90}, {"measurement": "Plant response rating, Nightshade", "setting": "[5]; 250 g ai/ha, scale 0-100", "result": 100}, {"measurement": "Plant response rating, Nightshade", "setting": "[5]; 500 g ai/ha, scale 0 to 100 (0 no effect, 100 complete control), visual, 12 to 14 days", "result": 100}, {"measurement": "Plant response rating, Soybean", "setting": "[6]; [16]", "result": 0}, {"measurement": "Plant response rating, Soybean", "setting": "[6]; [14]", "result": 90}, {"measurement": "Plant response rating, Soybean", "setting": "[6]; [17]", "result": 100}]}
{"smiles": "CCCCOC(=O)c1cccc(NC(=O)c2cc(C(C)(C)C)nn2CC)c1", "note": "[Compound 86]", "values": [{"measurement": "Barnyardgrass plant response rating", "setting": "[7]; [19]", "result": 20}, {"measurement": "Plant response rating, Barnyardgrass", "setting": "[7]; [20]", "result": 20}, {"measurement": "Barnyardgrass plant response rating", "setting": "[7]; [21]", "result": 0}, {"measurement": "Barnyardgrass plant response rating", "setting": "[7]; [22]", "result": 0}, {"measurement": "Crabgrass, Large plant response rating", "setting": "[8]; [19]", "result": 20}, {"measurement": "Plant response rating, Crabgrass, Large", "setting": "[8]; [20]", "result": 25}, {"measurement": "Crabgrass, Large plant response rating", "setting": "[8]; [21]", "result": 0}, {"measurement": "Crabgrass, Large plant response rating", "setting": "[8]; [22]", "result": 0}, {"measurement": "Pigweed plant response rating", "setting": "[9]; [19]", "result": 55}, {"measurement": "Plant response rating, Pigweed", "setting": "[9]; [20]", "result": 95}, {"measurement": "Pigweed plant response rating", "setting": "[9]; [21]", "result": 0}, {"measurement": "Pigweed plant response rating", "setting": "[9]; [22]", "result": 55}, {"measurement": "Plant response rating, Velvetleaf", "setting": "[1]; Postemergence, 500 g ai/ha; visual rating after 13 to 15 days, scale 0 (no effect) to 100 (complete control)", "result": 70}, {"measurement": "Velvetleaf plant response rating", "setting": "[1]; postemergence, 125 g ai/ha; visual rating, scale 0 (no effect) to 100 (complete control)", "result": 60}, {"measurement": "Plant response rating, Velvetleaf", "setting": "[1]; preemergence, 125 g ai/ha; 0 to 100 scale, 0 is no effect, 100 is complete control", "result": 0}, {"measurement": "Bermudagrass plant response rating", "setting": "[2]; Postemergence, scale 0 to 100", "result": 100}, {"measurement": "Plant response rating, Bermudagrass", "setting": "[2]; [23]", "result": 30}, {"measurement": "Plant response rating, Bermudagrass", "setting": "[2]; [24]", "result": 10}, {"measurement": "Cocklebur plant response rating", "setting": "[3]; Postemergence, scale 0 to 100", "result": 100}, {"measurement": "Plant response rating, Cocklebur", "setting": "[3]; [23]", "result": 100}, {"measurement": "Plant response rating, Cocklebur", "setting": "[3]; [25]", "result": 95}, {"measurement": "Plant response rating, Cocklebur", "setting": "[3]; [24]", "result": 85}, {"measurement": "Johnsongrass plant response rating", "setting": "[4]; [26]", "result": 30}, {"measurement": "Plant response rating, Johnsongrass", "setting": "[4]; [23]", "result": 10}, {"measurement": "Plant response rating, Johnsongrass", "setting": "[4]; [24]", "result": 10}, {"measurement": "Soybean plant response rating", "setting": "[6]; [26]", "result": 95}, {"measurement": "Plant response rating, Soybean", "setting": "[6]; [23]", "result": 90}, {"measurement": "Plant response rating, Soybean", "setting": "[6]; [25]", "result": 70}, {"measurement": "Plant response rating, Soybean", "setting": "[6]; [24]", "result": 45}]}
{"smiles": "CCn1nc(C(C)(C)C)cc1C(=O)Nc1cc(C(=S)N(C)C)ccn1", "note": "[Compound 334]", "values": [{"measurement": "Plant response rating (0 to 100 scale), Velvetleaf", "setting": "[1]; 125 g ai/ha; 0 is no effect, 100 is complete control; preemergence", "result": 100}, {"measurement": "Velvetleaf plant response rating", "setting": "[1]; [10]", "result": 50}, {"measurement": "Velvetleaf plant response rating", "setting": "[1]; [11]", "result": 60}, {"measurement": "Plant response rating, Bermudagrass", "setting": "[2]; 31 g ai/ha, scale 0 to 100, 0 no effect, 100 complete control, last section of Table C (species set of preemergence test)", "result": 100}, {"measurement": "Plant response rating, Bermudagrass", "setting": "[2]; [12]", "result": 100}, {"measurement": "Plant response rating, Bermudagrass", "setting": "[2]; [13]", "result": 100}, {"measurement": "Plant response rating, Bermudagrass", "setting": "[2]; [14]", "result": 100}, {"measurement": "Plant response rating, Cocklebur", "setting": "[3]; [16]", "result": 30}, {"measurement": "Plant response rating, Cocklebur", "setting": "[3]; [13]", "result": 60}, {"measurement": "Plant response rating, Cocklebur", "setting": "[3]; [14]", "result": 70}, {"measurement": "Plant response rating, Johnsongrass", "setting": "[4]; [16]", "result": 90}, {"measurement": "Plant response rating, Johnsongrass", "setting": "[4]; [13]", "result": 100}, {"measurement": "Plant response rating, Johnsongrass", "setting": "[4]; [14]", "result": 100}, {"measurement": "Plant response rating, Nightshade", "setting": "[5]; 62 g ai/ha, scale 0 to 100", "result": 100}, {"measurement": "Plant response rating, Nightshade", "setting": "[5]; [18]", "result": 100}, {"measurement": "Plant response rating, Nightshade", "setting": "[5]; 250 g ai/ha, scale 0-100", "result": 100}, {"measurement": "Plant response rating, Soybean", "setting": "[6]; [16]", "result": 15}, {"measurement": "Plant response rating, Soybean", "setting": "[6]; [14]", "result": 80}]}
